Calls of active or inactive are those of the source. No cut-off for these calls is given here.

The target of this assay is T1, Histone-lysine N-methyltransferase SETD7 (Homo sapiens) (UniProt Q8WTS6).
T1 sequence (whole entry): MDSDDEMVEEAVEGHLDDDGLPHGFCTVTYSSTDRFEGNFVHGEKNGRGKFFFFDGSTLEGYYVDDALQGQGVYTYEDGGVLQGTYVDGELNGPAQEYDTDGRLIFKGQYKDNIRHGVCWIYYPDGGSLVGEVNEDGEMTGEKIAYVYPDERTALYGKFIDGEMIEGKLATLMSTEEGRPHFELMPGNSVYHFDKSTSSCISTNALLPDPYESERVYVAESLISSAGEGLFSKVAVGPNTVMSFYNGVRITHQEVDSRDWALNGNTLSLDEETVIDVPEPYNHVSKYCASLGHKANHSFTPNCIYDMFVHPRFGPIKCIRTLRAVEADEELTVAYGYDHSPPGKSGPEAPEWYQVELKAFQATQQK
The experiment in a line: Inhibition of human recombinant SET7/9 in cell free system assessed as monomethylation of histone H3 Lys4 residue after 1 hr in presence of 2 uM AdoMet.
As for `CCCCCCN(CC[C@H](N)C(=O)O)C[C@H]1O[C@@H](n2cnc3c(N)ncnc32)[C@H](O)[C@@H]1O`, the inhibition result was “inactive”.

Turning to `CNCCN(CC[C@H](N)C(=O)O)C[C@H]1O[C@@H](n2cnc3c(N)ncnc32)[C@H](O)[C@@H]1O`, the inhibition entry was “Active”.

For the compound `CCCCCCNCCN(CC[C@H](N)C(=O)O)C[C@H]1O[C@@H](n2cnc3c(N)ncnc32)[C@H](O)[C@@H]1O`, the inhibition result was “Active”.

In the case of `Nc1ncnc2c1ncn2[C@@H]1O[C@H](CN(CCNCCc2ccccc2)CC[C@H](N)C(=O)O)[C@@H](O)[C@H]1O`, the inhibition result is “Active”.

With `CCCNCCN(CC[C@H](N)C(=O)O)C[C@H]1O[C@@H](n2cnc3c(N)ncnc32)[C@H](O)[C@@H]1O`, the inhibition entry is “Active”.

Values taken from ChEMBL document CHEMBL1287732, “Development of novel bisubstrate-type inhibitors of histone methyltransferase SET7/9” (Bioorg Med Chem, 2010).
